Laboratory results as given in US20030021796A1, “Method of enhancing T cell immunity by selection of antigen specific T cells” (priority 2001, published 2003).
“Also recorded” adds a separate entry of the source.

Key:
[1] = system: TCR^TgTCRα^− lymph node cells; assay: Proliferation of TCR transgenic lymph node cells stimulated with agonist peptides ([3H]thymidine incorporation); type: cell-based, mouse
Protocol: Antigen response of TCR transgenic cells. Proliferation of lymph node cells isolated from TCR^TgTCRα^−and TCR^TgTCRα^−2-M^−Ii^− mice injected with the selecting peptide was measured in response to antigen. Response of the TCR^TgTCRα^− lymph node cells to different agonist peptides was measured by proliferation assay in a 96-well plate. 10^5 responder cells were stimulated with peptides presented by 5×10^5 irradiated C57BL6 splenocytes. Agonist peptides were used at concentrations of 0.01, 0.1, 0.5, 1.0, 2.5, 5.0, 10.0 and 20.0 μM. After 3 days cells were pulsed with 1 μCi of [^3H]thymidine added to each well and after 18 hours thymidine incorporation was measured. The sequences of peptides used were: PCC50V (AEGFSYTVANKNKGIT), PCC50L (AEGFSYTLANKNKGIT), PCC50V54A (AEGFSYTVANKAKGIT), PCC46A49A50V54A (AEGASYAVANKAKGIT), PCC50F54A (AEGFSYTFANKAKGIT), neutral ceramidase (AGFFQYTLYILASEG) and IgGVH (NADFKTPATLTVDKA). All peptides were synthesized by FMOC (fluorenyl methoxycarbonyl) chemistry and purified by reversed-phase high-performance liquid chromatography. To compare the antigenic response of CD4^+ TCR Tg cells lymph node cells were collected from TCR^TgTCRα^− and TCR^TgTCRα^−H2-M^−Ii^− mice two weeks after peptide injection. Single cell suspensions were prepared and CD4^+ cells were sorted using magnetic beads coated with anti CD4 antibodies (MACS). Purity of sorted cells exceeded 85%. 2×10^4 of purified CD4^+ cells were used in proliferation assay. Cells were stimulated with increasing concentrations of agonist peptides presented by APCs from wild type or H2-M^−Ii^− mice. IgGVH derived peptide (20 μM) was used as a negative control. Peptides were presented by irradiated splenocytes from a C57BL6 mouse. Proliferation was measured after 3 days by thymidine incorporation by pulsing cells with 1 μCi of [^3H] thymidine for 18 hours. Antagonism assay was done by prepulsing 5×10^5 antigen-presenting cells per well for 2 hr. with 5 μM of the antigenic peptide PCC50V54A, washing, and then exposing them to varying concentrations of peptide analogs with 2×10^4 purified CD4^+ TCR^Tg lymphocytes as responder cells (Lyons et al., 1996). For antagonism assays the percent of proliferation inhibition was calculated as 100-100*(thymidine incorporation in the presence of antagonist/thymidine incorporation in the absence of antagonist) (Lyons et al., 1996).

[2] = system: transgenic CD4^+ thymocytes; assay: Positive selection of CD4^+ thymocytes after peptide injection into TCR^TgTCRα^−H2-M^−Ii^− mice (flow cytometry of thymus); type: in vivo, mouse
From the text: Mice. The TCR genes were cloned from T cell hybridoma specific for analogs of the PCC(43-58) peptide and expressed in VA-hCD2 cassette (Ignatowicz et al., 1997; Kraj et al., 2001; Zhumabekov et al., 1995). All TCR transgenic mice were made by co-microinjection of the respective […] and TCRβ constructs into fertilized eggs of F1 (C57BL/6×CBA/Ca) mice. TCR Tg mice were crossed to C57B16/TCRα^− (Jackson Laboratory, ME) mice and to mice deficient in H2-M (kindly provided by E. Bikoff and R. Germain) and Ii (kindly provided by L. van Kaer) to obtain TCR^TgTCRα^− H2-M^−Ii^−.
Flow cytometry analysis. Monoclonal antibodies specific for CD4(RM4-5), CD8(53-6.7), VβB8(F23.1), CD69(H1.2F3), CD44(IM7) and CD62L(MEL-14) were purchased from PharMingen (San Diego, Calif.) and used according to manufacturer's recommendations. Cells were analyzed using a FACSCalibur instrument (Becton Dickinson, San Jose, Calif.) and CellQuest software. For intracellular stain cells were first stained for CD4 and CD8, fixed in 2% paraformaldehyde, permeabilized in 0.1% Tween-20 and stained with anti-bcl-2 antibody (Pharmingen) according to manufacturer instruction.
Peptide injections and surgical procedures. TCR^TgTCRα^− and TCR^TgTCRαH2-M^−Ii^− were injected i.p. with agonist and control peptides dissolved in PBS. After indicated time mice were sacrificed, thymus and lymph nodes were collected and single cell suspensions were prepared. Pups were injected with 2 μg of peptide subcutaneously 12-24 hours after birth and thymi were transplanted into recipient mice 24 hours after injection. 5-8 week old TCR^TgTCRα^− H2-M^−Ii^− mice were used for thymectomy or as thymic transplant recipients. Surgical procedures were performed as described (Coligan et al., 1997). Mice were handled according with the institutional guidance.

[3] = system: transgenic CD4^+ thymocytes; assay: Neonatal thymic organ cultures (NTOC) from peptide-injected TgTCRα^−H-2M^−Ii^− neonates; type: cell-based, mouse; conditions: single i.p. injection just after birth, thymus harvested 24 hours later
From the text: The TgTCRα^−H-2M^−Ii^− system enables the visualization of thymocyte positive selection in real time and in the native intrathymic environment. An in vitro system was setup where the transgenic thymocytes undergo efficient positive selection and commit to the CD4^+ lineage. […] These observations agreed with the previous reports in which CD8^+, but not CD4+, T cells could be positively selected by the specific peptide in FTOCs (Kenty et al., 1998; Liblau et al, 1996). Therefore, neonatal thymic organ cultures (NTOC) were established from TgTCRα^−-H-2M^−Ii^− neonates. The neonates received a single i.p. injection of the PCC50V54A peptide just after birth and were sacrificed 24 hours later when their thymuses were harvested.

[4] = system: peptide selected CD4^+ cells; assay: Antigen response (proliferation) of lymph node CD4^+ cells from peptide-injected TCR^TgTCRα^−H2-M^−Ii^− mice; type: cell-based, mouse
Protocol: Antigen response of TCR transgenic cells. Proliferation of lymph node cells isolated from TCR^TgTCRα^−and TCR^TgTCRα^−2-M^−Ii^− mice injected with the selecting peptide was measured in response to antigen. Response of the TCR^TgTCRα^− lymph node cells to different agonist peptides was measured by proliferation assay in a 96-well plate. 10^5 responder cells were stimulated with peptides presented by 5×10^5 irradiated C57BL6 splenocytes. Agonist peptides were used at concentrations of 0.01, 0.1, 0.5, 1.0, 2.5, 5.0, 10.0 and 20.0 μM. After 3 days cells were pulsed with 1 μCi of [^3H]thymidine added to each well and after 18 hours thymidine incorporation was measured. The sequences of peptides used were: PCC50V (AEGFSYTVANKNKGIT), PCC50L (AEGFSYTLANKNKGIT), PCC50V54A (AEGFSYTVANKAKGIT), PCC46A49A50V54A (AEGASYAVANKAKGIT), PCC50F54A (AEGFSYTFANKAKGIT), neutral ceramidase (AGFFQYTLYILASEG) and IgGVH (NADFKTPATLTVDKA). […] Proliferation was measured after 3 days by thymidine incorporation by pulsing cells with 1 μCi of [^3H] thymidine for 18 hours. […] For antagonism assays the percent of proliferation inhibition was calculated as 100-100*(thymidine incorporation in the presence of antagonist/thymidine incorporation in the absence of antagonist) (Lyons et al., 1996).

transgenic CD4^+ T cells = assay: Selection of transgenic CD4^+ T cells in TCR^TgTCRα^−→H-2M^−Ii^− radiation chimeras; conditions: mouse, in vivo
From the text: Also disclosed by the inventors is the development of transgenic CD4^+ T cells in chimeras made by reconstituting H-2M^−Ii^− mice with the bone marrow from TCR^TgTCRα^− mice (TCR^TgTCRα^−→H-2M^−Ii^− chimeras). The development of thymocytes in such chimeras is arrested at the CD4^+CD8^+ stage despite the presence of selecting wild type A^b/self-peptide complexes on bone marrow-derived dendritic cells. […] This in vivo model relates that, in contrast to the reaggregation cultures (Yastumo et al., 2000), radioresistant thymic epithelial cells are required to provide an agonist signal that induces thymocyte differentiation towards CD4^+ lineage in vivo.

[5] = one i.p. injection of 50 μg, 24 hours

AEGFSYTVANKAKGIT [PCC50V54A, analog of pigeon cytochrome C peptide PCC(43-58)]
agonist potency / agonist properties ([1]; in vitro stimulation of transgenic T cells): strong agonist
recognition by the transgenic TCR / stimulation of transgenic cells ([1]; peptides presented by irradiated C57BL6 splenocytes): recognizes; also recorded: stimulate
cellularity of the thymus and number of apoptotic cells (TUNNEL assay and annexin V staining) ([2]; 20 μg, compared with controls): the same
expression of TCR, CD69, bcl-2 on thymocytes ([2]; after injection of selecting peptide (20 μg, 48 hours)): became bcl-2+; also recorded: upregulated CD69 and bcl-2 expression; also recorded: upregulated TCR and CD69 expression; also recorded: Bcl-2 was upregulated
positive selection of transgenic thymocytes ([2]; i.p., non-deleting dose (20 μg)): restored selection of CD4^+ single positive thymocytes
CD25 phenotype of newly selected CD4^+ thymocytes ([2]; mouse, in vivo): CD25^−
differentiation of thymocytes into single positive CD4^+ cells [2, 5]: differentiate into single positive CD4^+ cells
total number of thymocytes [2, 5]: 161.5×10^6±54.4
total number of thymocytes ([2]; one i.p. injection of 50 μg, 48 hours): 142.5×10^6±44.9
duration of positive selection of CD4^+ thymocytes after a single injection ([2]; single injection): 14 days
duration of continuous positive selection of CD4^+ thymocytes in NTOC [3]: 4 to 5 days
response of peptide selected CD4^+ cells to agonist peptides in vitro [4]: functional and respond to agonist peptides; also recorded: weakly respond in vitro
appearance / positive selection of mature CD4^+ T cells in chimeras (transgenic CD4^+ T cells): appeared only after injection
